This is an account of results in patent publication US8715927B2, “Inhibition of DNA polymerases to augment chemotherapeutic and antimicrobial agents” (priority 2008, dated 2014).

For one data set, the target named is E. coli DNA pol IV (Escherichia coli, UniProt Q47155). Conditions: −10 primer, 30-minute reactions, 37° C.
For the next data set, the target named is T1, E. coli DNA pol II (Escherichia coli, UniProt P21189).
T1 construct: made in house
Put plainly: Primer extension assay by E. coli DNA pol II. The data set is classed as biochemical. As to conditions: pol II 0.3 nM, time course. As to the method: Control, non-damaged and ICL-containing DNA substrates were used to analyze replication from a −10 primer by pol II (FIG. 7A) and pol IV (FIGS. 7B and 7C). Using the non-damaged primer-template substrates pol II catalyzed a highly processive polymerization to yield full-length primer extension products. […] ICL bypass by pol II was not observed even when reactions were conducted with increased enzyme concentrations (up to a 1000-fold excess relative to DNA substrate).

A further data set deals with COS-7 cells. Put plainly: Mutagenesis assay: site-specifically modified pMS2 shuttle vector replicated in COS-7 cells. Conditions: for Deletions / Single base substitutions G to A / Single base substitutions G to C / Single base substitutions G to T: number among colonies scored, pMS2 vector, COS-7 cells; for Frequency of mutations: pMS2 vector replicated in COS-7 cells. The data set is classed as cell-based. The protocol:
Mutagenesis assays were performed using a previously developed pMS2 shuttle vector/COS-7 system (Moriya, Proc. Natl. Acad. Sci. U.S.A. 90:1122-1126, 1993). In its single-stranded form, the pMS2 vector contains a hairpin loop with an internal EcoRV restriction site. Incorporation of control non-damaged oligodeoxynucleotides into this site was accomplished in the presence of a scaffold DNA according to a published method (Kanuri et al., J. Biol. Chem. 277:18257-18265, 2002). To create a single-stranded pMS2 containing site-specific interstrand crosslink, the procedure was modified as described below.
Oligodeoxynucleotides containing a model acrolein-derived site-specific interstrand crosslink (FIG. 1A and FIG. 1B) were designed in such a way that peripheral regions of the longer strands (36-mer) were complementary to the vector sequences immediately adjacent to the EcoRV site. A circular single-stranded pMS2 vector (approximately 15 pmol) was digested with 40 units of EcoRV (New England BioLabs) for 3 hours at 37° C. to generate a linear DNA. 5′-phosphorylated crosslinked inserts (60 pmol) were added to the linear single-stranded pMS2 (15 pmol), and ligated using 60 units of T4 DNA ligase (New England BioLabs) for 48 hours at 4° C. To obtain double-stranded pMS2 vectors, the 36-mer strand of the crosslink or the scaffold oligodeoxynucleotide in control DNA was extended using 5 units of T4 DNA polymerase (New England BioLabs) and 1 mM dNTPs at 37° C. for 1 hour. A newly-synthesized strand was concomitantly sealed using 5 units of T4 DNA ligase (New England BioLabs). The creation of double-stranded pMS2 was verified by PstI (New England BioLabs) digestion.
Transfection of pMS2 vector into COS-7 cells, isolation of progeny DNA, selection of individual clones by E. coli transformation, and differential hybridization analyses were performed as previously described (Moriya, Proc. Natl. Acad. Sci. U.S.A. 90:1122-1126, 1993; Kanuri et al., J. Biol. Chem. 277:18257-18265, 2002).
Previous studies have established that in human cells, crotonaldehyde-mediated N^2-N^2-guanine ICLs were repaired mostly (>94%) in an error-free manner (Liu et al., Biochemistry 45:12898-12905, 2006). Since acrolein-mediated ICLs are structurally similar to crotonaldehyde-mediated ICLs, it is possible that model acrolein-derived N^2-N^2-guanine ICL (FIG. 1A) would not be highly mutagenic when plasmid vectors containing this lesion were replicated in mammalian cells. In order to test this, oligodeoxynucleotides were constructed to contain a site-specific ICL in either CpG or GpC sequence contexts (FIG. 1B) and engineered into a double-stranded DNA shuttle vector (pMS2). The vector was replicated in COS-7 cells, and progeny DNAs were analyzed to determine frequency and types of mutations. In both the CpG and GpC sequence contexts, the mutation frequencies were very low, 3.0% and 3.2%, respectively (Table 2).

Another data set concerns the target avidin (Gallus gallus, UniProt P02701). As to conditions: non-covalent interaction; cited from earlier work.

T1 sequence (P21189 whole entry): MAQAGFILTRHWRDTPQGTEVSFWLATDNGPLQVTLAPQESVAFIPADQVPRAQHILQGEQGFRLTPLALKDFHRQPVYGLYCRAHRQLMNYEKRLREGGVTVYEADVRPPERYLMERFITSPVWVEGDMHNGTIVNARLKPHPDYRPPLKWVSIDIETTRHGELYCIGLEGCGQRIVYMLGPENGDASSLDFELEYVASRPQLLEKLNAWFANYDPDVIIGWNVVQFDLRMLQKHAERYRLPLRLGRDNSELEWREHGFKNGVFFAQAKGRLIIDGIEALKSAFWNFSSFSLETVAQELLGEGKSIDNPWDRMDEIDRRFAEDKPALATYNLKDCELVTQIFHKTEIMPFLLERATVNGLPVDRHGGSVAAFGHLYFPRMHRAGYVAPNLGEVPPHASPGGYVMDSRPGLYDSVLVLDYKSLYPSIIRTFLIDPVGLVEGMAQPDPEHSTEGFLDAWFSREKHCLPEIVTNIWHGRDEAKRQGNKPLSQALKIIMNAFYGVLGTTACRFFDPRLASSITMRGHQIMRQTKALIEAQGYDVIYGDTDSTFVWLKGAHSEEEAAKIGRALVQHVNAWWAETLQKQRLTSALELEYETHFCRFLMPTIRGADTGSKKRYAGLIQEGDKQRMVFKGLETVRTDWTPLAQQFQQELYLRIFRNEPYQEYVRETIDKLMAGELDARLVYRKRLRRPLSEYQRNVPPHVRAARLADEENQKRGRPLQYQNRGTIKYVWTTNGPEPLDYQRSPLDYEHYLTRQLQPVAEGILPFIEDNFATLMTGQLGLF
avidin, sequence (P02701 25-152, species assumed): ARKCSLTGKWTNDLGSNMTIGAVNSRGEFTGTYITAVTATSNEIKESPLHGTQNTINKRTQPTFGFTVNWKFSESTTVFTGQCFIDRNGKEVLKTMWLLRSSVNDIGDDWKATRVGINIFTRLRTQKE
E. coli DNA pol IV, sequence (Q47155 whole entry): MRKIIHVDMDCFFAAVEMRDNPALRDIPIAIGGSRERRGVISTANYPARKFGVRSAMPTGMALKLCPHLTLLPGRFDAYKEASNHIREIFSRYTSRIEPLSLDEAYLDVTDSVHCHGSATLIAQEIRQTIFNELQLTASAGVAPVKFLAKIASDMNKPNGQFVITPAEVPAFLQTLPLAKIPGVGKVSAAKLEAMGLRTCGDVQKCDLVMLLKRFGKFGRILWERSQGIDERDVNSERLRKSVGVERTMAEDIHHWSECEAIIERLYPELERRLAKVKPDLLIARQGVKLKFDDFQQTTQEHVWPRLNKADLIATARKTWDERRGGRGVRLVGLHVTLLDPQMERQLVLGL
Description for E. coli DNA pol IV: The primer extension assays were conducted in a 10 μl reaction volume containing pol II or pol IV, 5 nM primer-template, 5 mM MgCl2, 100 μM dNTPs, 25 mM Tris-HCl (pH 7.5), 25 mM DTT, 0.5 mg/ml BSA and 10% glycerol. Reactions were carried out at 37° C. for 30 minutes followed by termination of the reaction with a solution containing 95% formamide, 10 mM EDTA and 0.03% (w/v) xylene cyanol and 0.03% (w/v) bromophenol blue. DNA replication products were separated through a 15% denaturing polyacrylamide gel at 2000 V and later analyzed on a Phosphor Imager (GE Healthcare).

With “ICL1: crosslinked oligodeoxynucleotide, SEQ ID NO: 5 and 6 joined by G-(CH2)3-G; models DNA product of dual incision around the ICL (chain 1 GATGCTANCYTGTC; chain 2 AGCGATAGACACYATAGCATCGCTGGTACCGACTCG; crosslinked oligodeoxynucleotide, G-(CH2)3-G interstrand crosslink, further chemistry not given here)”, the “replication by increasing concentrations of pol IV” value with E. coli DNA pol IV is “very poor strand displacement synthesis”. For the same molecule, the “replication from −10 primer by pol II” value with E. coli DNA pol II is on record as “unable to carry out effective strand-displacement synthesis”.
Turning to “CpG ICL: SEQ ID NO: 1 and 2 joined by G-(CH2)3-G; model acrolein-derived N2-N2-guanine ICL in CpG context (chain 1 GCTAGCGAGTCC; chain 2 CCTGCAAGCGATGGACTCGCTAGCATCGCTGGTACC; listed as DNA, chemistry not fully specified)”, in the data set with COS-7 cells, the Deletions was determined as 0, the “Single base substitutions G to A” value is 0, the “Single base substitutions G to C” value came to 0 and the “Single base substitutions G to T” value is listed as 2. In the data set with COS-7 cells, the Frequency of mutations came to 3.0%.
With `O=C(O)CCCC[C@@H]1SC[C@@H]2NC(=O)N[C@@H]21` [biotin], the “Ka of avidin-biotin complex” value on avidin is 10^15 M^−1.
For “GpC ICL: SEQ ID NO: 3 and 4 joined by G-(CH2)3-G; model acrolein-derived N2-N2-guanine ICL in GpC context (chain 1 GCTGAGCGATCC; chain 2 CCTGCAAGCGATGGATCGCTCAGCATCGCTGGTACC; listed as DNA, chemistry not fully specified)”, in the data set on COS-7 cells, the Deletions came to 5, the “Single base substitutions G to A” value was 4, the “Single base substitutions G to C” value is 1 and the “Single base substitutions G to T” value was 1. In addition, the Frequency of mutations in the data set with COS-7 cells was found to be 3.2%.
